{"source": "patent EP3632916B1", "about": "“MORPHINAN COMPOUNDS” (Concert Pharmaceuticals Inc., priority 2007, dated 2008)", "target": "Human CYP2D6 + P450 Reductase SUPERSOMES (Homo sapiens, UniProt P10635)", "sequence (P10635 whole entry)": "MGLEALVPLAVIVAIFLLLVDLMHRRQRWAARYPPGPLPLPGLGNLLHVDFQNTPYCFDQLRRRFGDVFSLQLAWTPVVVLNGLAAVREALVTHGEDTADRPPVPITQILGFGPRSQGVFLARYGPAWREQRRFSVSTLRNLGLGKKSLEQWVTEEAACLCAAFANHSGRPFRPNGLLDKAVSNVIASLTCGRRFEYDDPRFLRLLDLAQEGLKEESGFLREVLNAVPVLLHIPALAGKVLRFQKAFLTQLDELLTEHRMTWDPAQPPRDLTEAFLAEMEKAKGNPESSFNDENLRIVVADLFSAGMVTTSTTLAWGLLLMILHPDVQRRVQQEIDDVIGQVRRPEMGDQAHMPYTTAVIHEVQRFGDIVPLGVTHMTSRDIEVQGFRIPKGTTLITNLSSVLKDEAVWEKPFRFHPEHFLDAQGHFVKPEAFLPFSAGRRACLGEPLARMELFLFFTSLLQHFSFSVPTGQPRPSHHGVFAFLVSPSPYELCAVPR", "details": "0.1 µM, 2D6 Supersomes", "protocol": "Plates were then spun in the centrifuge for 10 minutes at 3000 rpm.", "data": [{"smiles": "COc1ccc2c(c1)[C@]13CCCC[C@@H]1[C@H](C2)N(C)CC3", "note": "[dextromethorphan, (+)-3-methoxy-17-methyl-(9α,13α,14α)-morphinan]", "values": [{"measurement": "intact compound at the 20 minute time point", "value": "no intact dextromethorphan could be detected"}]}]}
